How the values were obtained:
Dpd (deoxypyridinoline) = experiment: Dpd concentration in blood plasma of ovari-ectomized rats; type: in vivo, rat
Method: (§1) For removal of ovary, a 12-week old white rat was anesthetized by ether. The rat got a shave on its back by a razor. Oophorectomy was performed after sterilizing the operating area with 70% ethanol. Particularly, skin was cut 2˜3 cm along the spinal column of the abdominal lower-flank region of one side, and then, muscle and peritoneum were incised 1.5 cm to exposure ovary. After ligating oviduct by a silk, the ovary was cut off and peritoneum, muscle and skin were sutured by a silk. The other side ovary was ectomized by the same procedure. Sham operation was performed for a control group, which opened peritoneum but sutured without taking ovary out. A period of recovery was 1 week.
Test animals were classified into three groups; a normal group (non-ovari-ectomized group), a control group 1 (sham-operated group) and an ovari-ectomized group. […]
Dpd concentration in blood plasma obtained above was measured by competitive enzyme immunoassay using a Dpd concentration measuring kit (Pyrilinks-D, Quidel Corporation, USA) in which an anti-Dpd antibody was included. […] After reaction was finished, OD450 was measured. Then, Dpd concentration was calculated by using a calibration curve made to explain the relation between Dpd content and optical density (FIG. 11).
Based on the result of the above Example <5-4>, changes of Dpd concentration after administering each sample for 9 weeks were quantified by the below formula. […]
In order to confim the effects of the extract of Sophorae Fructus of the present invention, Dpd concentrations in groups administered with the extract of Sophorae Fructus of the present invention were calculated by comparing with Dpd concentration in a control group 2 (ovari-ectomized) in which osteoporosis was progressed much. […]

TGF-beta = TGF-beta secretion in osteoblasts, ELISA; type: cell-based, human; conditions: MG-63 cells
Method: (§2) In order to investigate whether the extract of Sophorae Fructus of the present invention could stimulate the secretion of IGF-1 and TGF-beta in osteoblasts, each sample was treated to MG-63 human osteoblast-like cells by the same method as used in Example <4-4>, and then, ELISA and RT-PCR were performed to measure the secretion and the expression of IGF-1 and TGF-beta. The expression levels of IGF-1 and TGF-beta were represented by a comparative rate (%) to that of a control. ELISA was performed by using ELISA kit (Quantikine, R&D system) according to the provided protocol to investigate the secretion of IGF-1 and TGF-beta. Then, optical density was measured by the same method as used in the Example <4-4>. RT-PCR was also performed by the same method as used in the above Example <4-4>. Each primer used for the RT-PCR was presented below.

[1] = Weight changes and weight gaining rate in ovari-ectomized rats; type: in vivo, rat
Method: As the experimental animals, white female SD (Sprague-Dawley) rats (230˜250 g) were purchased from Hallym Research Institute of Experimental animals (Kyunggido, Korea). The rats were raised at 23±1° C., under 40˜60% humidity and 12-hour light and shade cycle. Feed (solid feed, Hallym Research Institute of Experimental animals, Kyunggido, Korea) and water were given freely, but just water was supplied on the day before drawing blood. For removal of ovary, a 12-week old white rat was anesthetized by ether. The rat got a shave on its back by a razor. Oophorectomy was performed after sterilizing the operating area with 70% ethanol. Particularly, skin was cut 2˜3 cm along the spinal column of the abdominal lower-flank region of one side, and then, muscle and peritoneum were incised 1.5 cm to exposure ovary. After ligating oviduct by a silk, the ovary was cut off and peritoneum, muscle and skin were sutured by a silk. The other side ovary was ectomized by the same procedure. Sham operation was performed for a control group, which opened peritoneum but sutured without taking ovary out. A period of recovery was 1 week. Test animals were classified into three groups; a normal group (non-ovari-ectomized group), a control group 1 (sham-operated group) and an ovari-ectomized group. The ovari-ectomized group was sub-divided into a control group 2, which was not administered with a sample, a 17-beta estradiol treating group (E group), an extract of Sophorae Fructus of Example 1 administering group (R-G group), an enzyme extract of Sophorae Fructus of Example 2 administering group (R-A group), a food composition comprising the extract of Sophorae Fructus of Example 3 administering group (R-P group) and a soybean ex-powder administering group (S-S group) by 10 animals each (Table 1). […] Weights of each group of the above Example <5-2> were measured with an electronic scale, from which weight gaining rate per day was calculated by the below formula. […]

[2] = Calcium concentration in blood plasma of ovari-ectomized rats, OCPC method; type: in vivo, rat
Method: as §1, with “week. Test animals were classified into three groups; a normal group (non-ovari-ectomized group), a control group 1 (sham-operated group) and an ovari-ectomized group. […] Therefore, measuring optical density of the magenta color leads to the quantification of calcium in a reagent. […]” for “week.”

IGF-1 = IGF-1 secretion in osteoblasts, ELISA; type: cell-based, human; conditions: MG-63 cells, 10^-4%
Method: as §2

[3] = system: MG-63 human osteoblast-like cells; experiment: Osteoblast proliferation, MTT method; type: cell-based; conditions: MG-63 cells, 72 hours
Method: MG-63 human osteoblast-like cells were distributed from Korean Cell Line Bank of Seoul National University College of Medicine, Seoul, Korea, which were sub-cultured for fuirther use. The frozen MG-63 human osteoblast-like cells were melted in a 37° C. water bath for 1 minute, followed by centrifugation with 1300 rpm for 5 minutes to eliminate supernatant. The obtained pellet was re-suspended in DMEM supplemented with 10% FBS, which was, then, distributed in a […] culture flask for further culture. The duration of culture was 2 weeks for cell stability. After confirming under a microscope that a monolayer was stably formed, the cells were used for the experiments. In order to investigate the osteoblast proliferation after the treatment of an extract of Sophorae Fructus, MG-63 human osteoblast-like cells of the above Example <4-1> were treated with the Sophorae Fructus extract powder of Example 1 (R-G), the Sophorae Fructus enzyme extract powder of Example 2 (R-A), and the food composition comprising an extract of Sophorae Fructus of Example 3 (R-P), which were cultured for 3 days. The effects of the above extracts on cell proliferation were measured by MTT method. […] After complete mixing, color changes were checked and OD570 was measured using an ELISA plate reader within an hour.

## C[C@]12CC[C@@H]3c4ccc(O)cc4CC[C@H]3[C@@H]1CC[C@@H]2O [E, 17-beta estradiol]
Dpd (deoxypyridinoline); 0.556 g/kg/day oral, E group 1 g/kg/day intraperitoneal
  Dpd concentration in blood plasma after 9 weeks of administration (10th week): rapid drop of Dpd concentration
Dpd (deoxypyridinoline); 9 weeks administration
  decrease rate of Dpd, regarding the amount of decreased Dpd of E group as 100%: 100%
Dpd (deoxypyridinoline); negative = decrease of Dpd concentration
  ΔDpd value (Dpd before administration versus after 9-week administration): negative
TGF-beta; 10^-4 to 10^-10%
  TGF-beta concentration (ELISA): evenly higher TGF-beta concentration
TGF-beta; minimum concentration 10^-12%
  TGF-beta concentration / secretion promoting activity (ELISA): decreased to the similar level to that in a control group
[1]; ovari-ectomized SD rats, 12 to 22 weeks old, 0.556 g/kg/day oral, E group 1 g/kg/day intraperitoneal, mean ± SD, * significant p < 0.05
  Weight gaining rate (g/day): 1.0095 ± 0.1* g/day
[1]; ovari-ectomized SD rats, after 9 weeks administration (0.556 g/kg/day oral; E group 1 g/kg/day intraperitoneal), mean ± SD
  Weight (g): Final weight (22 weeks old): 302.4 ± 29.885 g
[1]; ovari-ectomized rats, versus rapid weight gaining in control group 2
  weight gaining after removal of ovary: slow
[2]; after 9 weeks administration (0.556 g/kg/day oral; estradiol 1 g/kg/day intraperitoneal), mean ± SD
  calcium concentration in blood plasma, 10 week: 17.96 ± 1.334
[2]; from the first week on
  course of calcium concentration in blood plasma after start of administration: rapid increase of calcium concentration
IGF-1
  IGF-1 concentration (ELISA), comparison of groups: highest IFG-1 concentration
[3]; 10^-4 to 10^-12%
  osteoblast proliferation effect (MTT, OD570): cell proliferation depended on its concentration
[3]; low concentration 10^-10% (estradiol 10^-10% and 10^-12%)
  osteoblast proliferation at low concentration versus high concentration: proliferation decreased

— patent publication US20070087064A1, “Composition for preventing and treating climacteric symptoms comprising the extract of sophorae fructus” (DREXGENEBIOTECH CO., LTD., priority 2003, published 2007)
